Molecules are shown by their SMILES. A value given as a limit tells only on which side of the number the result lay.

This passage reports IC50 results from patent publication US11524968B2, “Heterocyclic compound as a protein kinase inhibitor” (HK inno.N Corporation, priority 2017, dated 2022).

The target of this assay is JAK1 (Homo sapiens (Human), UniProt P23458). Description: Analysis of JAK1 activity inhibition ability (ADP-Glo Kinase Assay). The assay is classed as biochemical. As to conditions: JAK1 enzyme, ADP-Glo luminescence, ATP 250 uM, IRS-itide substrate, 30° C. 40 minutes; read-out: IC50. An outline of the steps: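 ADP-Glo luminescence read-out of ADP production, with IC50 taken as the concentration halving JAK1 activity relative to control. Enzyme was incubated 40 min at 30 °C with compound, IRS-itide (40 ng/mL) and ATP (250 uM), concentrations as prepared in pH 7.5 Tris-HCl/MgCl2/BSA/DTT buffer.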
Chain of JAK1 (P23458 whole entry): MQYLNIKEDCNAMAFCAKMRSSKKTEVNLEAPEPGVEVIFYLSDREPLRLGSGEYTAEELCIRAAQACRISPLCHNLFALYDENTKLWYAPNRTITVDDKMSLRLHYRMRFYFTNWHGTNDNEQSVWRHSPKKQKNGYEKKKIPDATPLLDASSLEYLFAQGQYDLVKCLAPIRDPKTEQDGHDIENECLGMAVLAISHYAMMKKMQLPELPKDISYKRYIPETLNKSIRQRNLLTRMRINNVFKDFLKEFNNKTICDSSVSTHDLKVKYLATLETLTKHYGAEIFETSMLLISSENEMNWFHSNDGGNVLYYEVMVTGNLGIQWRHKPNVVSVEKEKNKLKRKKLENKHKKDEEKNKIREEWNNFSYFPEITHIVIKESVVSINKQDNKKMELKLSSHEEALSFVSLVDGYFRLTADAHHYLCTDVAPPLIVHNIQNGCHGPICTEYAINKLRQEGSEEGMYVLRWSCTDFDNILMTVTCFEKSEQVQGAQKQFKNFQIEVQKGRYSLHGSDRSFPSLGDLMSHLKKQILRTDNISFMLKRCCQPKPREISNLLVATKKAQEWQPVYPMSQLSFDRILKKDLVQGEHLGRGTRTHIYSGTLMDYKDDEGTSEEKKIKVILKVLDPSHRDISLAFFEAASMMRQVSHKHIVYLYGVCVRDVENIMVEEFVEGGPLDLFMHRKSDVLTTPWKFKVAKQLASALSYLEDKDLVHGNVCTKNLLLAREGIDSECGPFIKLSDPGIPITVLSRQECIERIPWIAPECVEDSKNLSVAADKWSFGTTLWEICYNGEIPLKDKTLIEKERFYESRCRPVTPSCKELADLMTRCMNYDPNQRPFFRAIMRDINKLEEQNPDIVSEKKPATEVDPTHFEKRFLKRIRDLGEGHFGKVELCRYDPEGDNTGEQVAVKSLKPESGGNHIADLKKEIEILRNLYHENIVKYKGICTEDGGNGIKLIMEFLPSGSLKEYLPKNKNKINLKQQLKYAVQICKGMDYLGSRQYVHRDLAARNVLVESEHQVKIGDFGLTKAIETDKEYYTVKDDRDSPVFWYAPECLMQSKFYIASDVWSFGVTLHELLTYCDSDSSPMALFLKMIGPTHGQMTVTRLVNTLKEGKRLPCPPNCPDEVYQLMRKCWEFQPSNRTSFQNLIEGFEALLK
For orientation: IC50 means the point on the concentration scale where inhibition reaches its midpoint. For the compound `CC(C)(C)OC(=O)N1CC(CC#N)(N2CC=C(c3cc(NC(=O)C4CC4)nc4[nH]ccc34)CC2)C1` [Example 614, tert-butyl 3-(cyanomethyl)-3-(4-(6-(cyclopropanecarboxamido)-1H-pyrrolo[2,3-b]pyridin-4-yl)-3,6-dihydropyridin-1 (2H)-yl)azetidine-1-carboxylate], the 50% inhibitory concentration (IC50) was above 200 nM. Turning to `CCCCNC(=O)Nc1ccc(-c2cc(NC(=O)C3CC3)nc3[nH]ccc23)cc1` [Example 433, N-(4-(4-(3-butylureido)phenyl)-1H-pyrrolo[2,3-b]pyridin-6-yl)cyclopropanecarboxamide], the IC50 fell in the range of 20 to 200 nM. In the case of `O=C(Nc1cc(-c2ccc(NC3CCN(C(=O)Nc4ccccc4)CC3)c(F)c2)c2cc[nH]c2n1)C1CC1` [Example 498, 4-((4-(6-(cyclopropanecarboxamido)-1H-pyrrolo[2,3-b]pyridin-4-yl)-2-fluorophenyl)amino)-N-phenylpiperidine-1-carboxamide], the IC50 is 20 to 200 nM.

As for `N#CCCCS(=O)(=O)N1CC(CC#N)(N2CC=C(c3cc(NC(=O)C4CC4)nc4[nH]ccc34)CC2)C1` [Example 618, N-(4-(1-(3-(cyanomethyl)-1-((3-cyanopropyl)sulfonyl)azetidin-3-yl)-1,2,3,6-tetrahydropyridin-4-yl)-1H-pyrrolo[2,3-b]pyridin-6-yl)cyclopropanecarboxamide], the IC50 is below 20 nM. Next, `N#CCCNC(=O)C1CC=C(c2cc(NC(=O)C3CC3)nc3[nH]ccc23)CC1` (stereo not shown) [Example 532, N-(2-cyanoethyl)-4-(6-(cyclopropanecarboxamido)-1H-pyrrolo[2,3-b]pyridin-4-yl)cyclohex-3-ene-1-carboxamide]: 20 to 200 nM; `O=C(Nc1cc(-c2ccc(NS(=O)(=O)CC3CCCCC3)c(F)c2)c2cc[nH]c2n1)C1CC1` [Example 70, N-(4-(4-((cyclohexylmethyl)sulfonamido)-3-fluorophenyl)-1H-pyrrolo[2,3-b]pyridin-6-yl)cyclopropanecarboxamide]: 20 to 200 nM. As for `O=C(Nc1cc(-c2ccc(NS(=O)(=O)CC3CCOCC3)c(F)c2)c2cc[nH]c2n1)C1CC1` [Example 73, N-(4-(3-fluoro-4-(((tetrahydro-2H-pyran-4-yl)methyl)sulfonamido)phenyl)-1H-pyrrolo[2,3-b]pyridin-6-yl)cyclopropanecarboxamide], the IC50 was below 20 nM. With `CC1CN(C2(CC#N)COC2)CC=C1c1cc(NC(=O)C2CC2)nc2[nH]ccc12` (stereo not shown) [Example 613, N-(4-(1-(3-(cyanomethyl)oxetan-3-yl)-3-methyl-1,2,3,6-tetrahydropyridin-4-yl)-1H-pyrrolo[2,3-b]pyridin-6-yl)cyclopropanecarboxamide], the IC50 is 20 to 200 nM. For the compound `O=C(Nc1cc(-c2ccc(CC(=O)N3CC[S+]([O-])CC3)cc2)c2cc[nH]c2n1)C1CC1` [Example 574, N-(4-(4-(2-(1-oxidothiomorpholino)-2-oxoethyl)phenyl)-1H-pyrrolo[2,3-b]pyridin-6-yl)cyclopropanecarboxamide], the IC50 was in the range of 20 to 200 nM. With `N#CCCCS(=O)(=O)Nc1ccc(-c2nc(NC(=O)C3CC3)nc3[nH]cnc23)cc1` [Example 210, N-(6-(4-((3-cyanopropyl)sulfonamido)phenyl)-9H-purin-2-yl)cyclopropanecarboxamide], the IC50 was above 200 nM. Consider `CCc1cc(-c2cc(NC(=O)C3CC3)[n+]([O-])c3[nH]ccc23)ccc1NS(=O)(=O)CC` [Example 135, 6-(cyclopropanecarboxamido)-4-(3-ethyl-4-(ethylsulfonamido)phenyl)-1H-pyrrolo[2,3-b]pyridine 7-oxide], for which the IC50 is 20 to 200 nM.

On to `O=C(Nc1cc(-c2ccc(NS(=O)(=O)CC3CCOC3)c(F)c2)c2cc[nH]c2n1)C1CC1` (stereo not shown) [Example 72, N-(4-(3-fluoro-4-(((tetrahydrofuran-3-yl)methyl)sulfonamido)phenyl)-1H-pyrrolo[2,3-b]pyridin-6-yl)cyclopropanecarboxamide], for which the IC50 is below 20 nM. Next, `C[C@@H]1CN(C(=O)c2ccnc(F)c2F)CC=C1c1cc(NC(=O)C2CC2)nc2[nH]ccc12` [Example 396, (S)—N-(4-(1-(2,3-difluoroisonicotinoyl)-3-methyl-1,2,3,6-tetrahydropyridin-4-yl)-1H-pyrrolo[2,3-b]pyridin-6-yl)cyclopropanecarboxamide]: below 20 nM.

On to `CCC1CN(C(=O)OC(C)(C)C)CC=C1c1cc(NC(=O)C2CC2)nc2[nH]ccc12` (stereo not shown) [Example 458, tert-butyl 4-(6-(cyclopropanecarboxamido)-1H-pyrrolo[2,3-b]pyridin-4-yl)-3-ethyl-3,6-dihydropyridine-1 (2H)-carboxylate], for which the IC50 is above 200 nM. Next, `CCC1CN(C(=O)CC#N)CC=C1c1cc(NC(=O)C2CC2)nc2[nH]ccc12` (stereo not shown) [Example 294, N-(4-(1-(2-cyanoacetyl)-3-ethyl-1,2,3,6-tetrahydropyridin-4-yl)-1H-pyrrolo[2,3-b]pyridin-6-yl)cyclopropanecarboxamide]: below 20 nM; `O=C(Nc1cc(C2CC3CCC(C2)N3S(=O)(=O)CCCF)c2cc[nH]c2n1)C1CC1` (stereo not shown) [Example 648, N-(4-(8-((3-fluoropropyl)sulfonyl)-8-azabicyclo[3.2.1]octan-3-yl)-1H-pyrrolo[2,3-b]pyridin-6-yl)cyclopropanecarboxamide]: above 200 nM. On to `O=C(Nc1cc(-c2ccc(C(=O)N3CCS(=O)(=O)CC3)cc2)c2cc[nH]c2n1)C1CC1` [Example 520, N-(4-(4-(1,1-dioxidothiomorpholine-4-carbonyl)phenyl)-1H-pyrrolo[2,3-b]pyridin-6-yl)cyclopropanecarboxamide], for which the IC50 was above 200 nM. Next, `O=C(Nc1cc(C2=CC3CCC(C2)N3S(=O)(=O)CCCF)c2cc[nH]c2n1)C1CC1` (stereo not shown) [Example 175, N-(4-(8-((3-fluoropropyl)sulfonyl)-8-azabicyclo[3.2.1]oct-2-en-3-yl)-1H-pyrrolo[2,3-b]pyridin-6-yl)cyclopropanecarboxamide]: 20 to 200 nM. For the compound `O=C(NCC(F)(F)F)Nc1ccc(-c2cc(NC(=O)C3CC3)nc3[nH]ccc23)cc1` [Example 435, N-(4-(4-(3-(2,2,2-trifluoroethyl)ureido)phenyl)-1H-pyrrolo[2,3-b]pyridin-6-yl)cyclopropanecarboxamide], the IC50 is 20 to 200 nM. On to `CCCS(=O)(=O)Nc1ccc(-c2cc(NC(=O)C3CC3)nc3[nH]ccc23)nc1F` [Example 150, N-(4-(6-fluoro-5-(propylsulfonamido)pyridin-2-yl)-1H-pyrrolo[2,3-b]pyridin-6-yl)cyclopropanecarboxamide], for which the IC50 is above 200 nM. In the case of `Cn1ccc(NC(=O)Cc2ccc(-c3cc(NC(=O)C4CC4)nc4[nH]ccc34)cc2)n1` [Example 556, N-(4-(4-(2-((1-methyl-1H-pyrazol-3-yl)amino)-2-oxoethyl)phenyl)-1H-pyrrolo[2,3-b]pyridin-6-yl)cyclopropanecarboxamide], the IC50 was 20 to 200 nM. Next, `CC1CN(C(=O)c2ccc(Cl)c(Cl)c2)CC=C1c1cc(NC(=O)C2CC2)nc2[nH]ccc12` (stereo not shown) [Example 353, N-(4-(1-(3,4-dichlorobenzoyl)-3-methyl-1,2,3,6-tetrahydropyridin-4-yl)-1H-pyrrolo[2,3-b]pyridin-6-yl)cyclopropanecarboxamide]: 20 to 200 nM.

On to `COc1ccc(S(=O)(=O)Nc2ccc(-c3cc(NC(=O)C4CC4)nc4[nH]ccc34)cc2)cn1` [Example 23, N-(4-(4-((6-methoxypyridine)-3-sulfonamido)phenyl)-1H-pyrrolo[2,3-b]pyridin-6-yl)cyclopropanecarboxamide], for which the IC50 was below 20 nM. Regarding `O=C(Nc1cc(C2=CCC(NC(=O)C3CC3)CC2)c2cc[nH]c2n1)C1CC1` (stereo not shown) [Example 246, N-(4-(6-(cyclopropanecarboxamido)-1H-pyrrolo[2,3-b]pyridin-4-yl)cyclohex-3-en-1-yl)cyclopropanecarboxamide], the IC50 is 20 to 200 nM. Consider `O=C(Nc1cc(C2=CCN(C(=O)CCC(F)(F)F)CC2)c2cc[nH]c2n1)C1CC1` [Example 254, N-(4-(1-(4,4,4-trifluorobutanoyl)-1,2,3,6-tetrahydropyridin-4-yl)-1H-pyrrolo[2,3-b]pyridin-6-yl)cyclopropanecarboxamide], for which the IC50 was 20 to 200 nM.

Consider `O=C(Nc1cc(-c2ccc(C(F)(F)C(=O)N3CCOCC3)cc2)c2cc[nH]c2n1)C1CC1` [Example 572, N-(4-(4-(1,1-difluoro-2-morpholino-2-oxoethyl)phenyl)-1H-pyrrolo[2,3-b]pyridin-6-yl)cyclopropanecarboxamide], for which the IC50 lay within 20 to 200 nM. For `O=C(Nc1cc(-c2ccc(NC3CCN(C(=O)CC(F)(F)F)CC3)cc2)c2cc[nH]c2n1)C1CC1` [Example 518, N-(4-(4-((1-(3,3,3-trifluoropropanoyl)piperidin-4-yl)amino)phenyl)-1H-pyrrolo[2,3-b]pyridin-6-yl)cyclopropanecarboxamide], the IC50 was above 200 nM. Next, `N#CC1(CC(=O)N2CC=C(c3cc(NC(=O)C4CC4)nc4[nH]ccc34)CC2)CC1` [Example 268, N-(4-(1-(2-(1-cyanocyclopropyl)acetyl)-1,2,3,6-tetrahydropyridin-4-yl)-1H-pyrrolo[2,3-b]pyridin-6-yl)cyclopropanecarboxamide]: 20 to 200 nM; `CC1CN(C(=O)CC2CCCC2)CC=C1c1cc(NC(=O)C2CC2)nc2[nH]ccc12` (stereo not shown) [Example 340, N-(4-(1-(2-cyclopentylacetyl)-3-methyl-1,2,3,6-tetrahydropyridin-4-yl)-1H-pyrrolo[2,3-b]pyridin-6-yl)cyclopropanecarboxamide]: 20 to 200 nM. As for `CCS(=O)(=O)Nc1ccc(-c2cc(NC(=O)C3CC3)nc3[nH]ccc23)cc1` [Example 4, N-(4-(4-(ethylsulfonamido)phenyl)-1H-pyrrolo[2,3-b]pyridin-6-yl)cyclopropanecarboxamide], the IC50 was below 20 nM. For the compound `N#CCC(=O)N1CC=C(c2cc(NC(=O)C3CC3)nc3[nH]ccc23)CCC1` [Example 422, N-(4-(1-(2-cyanoacetyl)-2,5,6,7-tetrahydro-1H-azepin-4-yl)-1H-pyrrolo[2,3-b]pyridin-6-yl)cyclopropanecarboxamide], the IC50 is below 20 nM.
